Results reported in patent US9434724B2, “Quinuclidines for modulating alpha 7 activity” (priority 2014, dated 2016).
Like-named read-outs stand apart in the source and are kept apart here.

Legend:
[1] = Metabolic stability assay in human liver microsomes (HLM); type: in vitro ADME; conditions: 1 μM
Summary of the method: (§1)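 In Protocol 1, compound was 1 μM final with NADPH at 37 °C, sampled at 0–45 min. In Protocol 2, 1.5 μM compound with 0.75 mg/mL microsomes (pre-NADPH mix) in 0.1 M potassium phosphate, 1 mM EDTA, pH 7.4 was pre-incubated 10 min, then NADPH started the reaction. Both: LC-MS/MS % remaining versus time 0, half-life from single-phase exponential fit.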

[2] = target: CYP3A4 (Homo sapiens (Human), UniProt P08684); test: Cytochrome P450 inhibition in human liver microsomes, CYP3A4
[3] = target: CYP1A2 (Homo sapiens (Human), UniProt P05177); test: Cytochrome P450 inhibition in human liver microsomes, CYP1A2
[4] = Human plasma stability; type: in vitro ADME; conditions: plasma
Summary of the method: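 Compound remaining was quantified by LC-MS/MS as peak-area ratio to internal standard relative to time 0, with half-lives from single-exponential fits. Protocol 1 incubated 1 μM in heparinized human plasma (pH 7.4, 37° C) to 120 min; protocol 2 used 5 μM, pH 7.4–8.0, 37° C, n=2, to 120 min.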

[5] = target: T1, CYP2C19 (Homo sapiens (Human), UniProt P33261); test: Cytochrome P450 inhibition in human liver microsomes, CYP2C19
[6] = target: CYP2D6 (Homo sapiens (Human), UniProt P10635); test: Cytochrome P450 inhibition in human liver microsomes, CYP2D6
[7] = target: rat brain nicotinic receptor (α7 NAChR) (Rattus norvegicus (Rat), UniProt Q05941); type: binding
[8] = target: CYP2C9 (Homo sapiens (Human), UniProt P11712); test: Cytochrome P450 inhibition in human liver microsomes, CYP2C9
[9] = Metabolic stability assay in rat liver microsomes (RLM); type: in vitro ADME; conditions: 1 μM
Summary of the method: as §1

[10] = target: T1, CYP2C19; conditions: microsomes
[11] = Protocol No. 1, human liver microsomes
[12] = read-out: 3A4 IC50 (Midazolam), substrate midazolam, Protocol 1
[13] = read-out: 3A4 IC50 (Testosterone), substrate testosterone, Protocol 1
[14] = read-out: 2C19 IC50, Protocol 1
[15] = Protocol No. 1, rat liver microsomes
[16] = Protocol No. 2, human liver microsomes
[17] = read-out: 3A4 IC50 (Midazolam), substrate midazolam, Protocol 2
[18] = read-out: 2C19 IC50, Protocol 2
[19] = Protocol No. 2, rat liver microsomes

CYP2C9, sequence (P11712 whole entry): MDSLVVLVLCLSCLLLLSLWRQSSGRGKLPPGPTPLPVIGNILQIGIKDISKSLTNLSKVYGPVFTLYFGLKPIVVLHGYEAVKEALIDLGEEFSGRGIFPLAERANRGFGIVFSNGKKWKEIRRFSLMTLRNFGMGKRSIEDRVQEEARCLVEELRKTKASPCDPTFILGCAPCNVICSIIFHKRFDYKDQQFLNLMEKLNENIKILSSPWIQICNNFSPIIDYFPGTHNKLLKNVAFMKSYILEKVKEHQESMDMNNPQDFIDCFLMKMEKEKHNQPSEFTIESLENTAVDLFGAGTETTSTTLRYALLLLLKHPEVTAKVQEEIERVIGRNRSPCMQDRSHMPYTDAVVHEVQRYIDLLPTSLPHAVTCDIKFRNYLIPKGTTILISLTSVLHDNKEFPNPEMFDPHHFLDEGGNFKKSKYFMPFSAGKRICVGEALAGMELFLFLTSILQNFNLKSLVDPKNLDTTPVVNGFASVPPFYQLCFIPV
CYP1A2, sequence (P05177 whole entry): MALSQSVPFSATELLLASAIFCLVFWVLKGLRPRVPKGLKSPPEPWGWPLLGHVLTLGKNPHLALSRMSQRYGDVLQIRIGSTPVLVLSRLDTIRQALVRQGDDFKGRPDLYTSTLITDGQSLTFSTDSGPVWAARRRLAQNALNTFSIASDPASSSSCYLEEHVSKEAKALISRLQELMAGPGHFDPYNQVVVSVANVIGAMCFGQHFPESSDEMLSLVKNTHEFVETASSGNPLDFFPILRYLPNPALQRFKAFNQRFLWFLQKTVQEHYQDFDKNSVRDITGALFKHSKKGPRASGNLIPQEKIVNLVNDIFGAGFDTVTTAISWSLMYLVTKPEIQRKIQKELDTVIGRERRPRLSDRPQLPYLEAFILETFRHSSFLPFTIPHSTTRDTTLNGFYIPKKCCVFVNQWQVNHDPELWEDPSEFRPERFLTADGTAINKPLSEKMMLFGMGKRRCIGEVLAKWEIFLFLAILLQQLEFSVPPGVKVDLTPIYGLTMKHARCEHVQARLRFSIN
CYP3A4, sequence (P08684 whole entry): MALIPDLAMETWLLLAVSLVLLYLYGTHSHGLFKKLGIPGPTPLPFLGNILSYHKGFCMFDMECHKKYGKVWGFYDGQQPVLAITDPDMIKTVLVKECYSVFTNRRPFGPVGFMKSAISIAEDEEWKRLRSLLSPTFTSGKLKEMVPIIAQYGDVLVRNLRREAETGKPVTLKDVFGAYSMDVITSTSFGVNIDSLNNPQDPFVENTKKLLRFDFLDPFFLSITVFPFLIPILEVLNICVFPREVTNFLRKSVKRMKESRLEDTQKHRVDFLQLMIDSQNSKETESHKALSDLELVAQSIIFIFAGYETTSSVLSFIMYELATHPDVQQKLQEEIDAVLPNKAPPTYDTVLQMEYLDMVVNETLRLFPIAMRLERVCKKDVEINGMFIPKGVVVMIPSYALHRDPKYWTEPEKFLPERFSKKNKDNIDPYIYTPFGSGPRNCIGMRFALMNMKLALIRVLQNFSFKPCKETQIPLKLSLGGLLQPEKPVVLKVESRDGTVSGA
T1 sequence (P33261 whole entry): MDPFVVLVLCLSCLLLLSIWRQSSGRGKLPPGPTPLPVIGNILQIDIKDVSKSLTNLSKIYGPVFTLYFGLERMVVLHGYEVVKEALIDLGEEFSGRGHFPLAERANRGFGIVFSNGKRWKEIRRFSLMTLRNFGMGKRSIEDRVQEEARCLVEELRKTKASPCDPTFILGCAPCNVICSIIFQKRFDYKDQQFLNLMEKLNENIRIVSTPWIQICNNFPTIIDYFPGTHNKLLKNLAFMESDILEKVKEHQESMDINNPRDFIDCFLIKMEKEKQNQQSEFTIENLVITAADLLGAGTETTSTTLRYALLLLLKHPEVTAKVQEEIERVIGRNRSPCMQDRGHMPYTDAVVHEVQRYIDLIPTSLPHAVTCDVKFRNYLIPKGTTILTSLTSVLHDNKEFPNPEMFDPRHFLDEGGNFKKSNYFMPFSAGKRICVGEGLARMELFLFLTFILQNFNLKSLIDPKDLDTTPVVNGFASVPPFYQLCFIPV
CYP2D6, sequence (P10635 whole entry): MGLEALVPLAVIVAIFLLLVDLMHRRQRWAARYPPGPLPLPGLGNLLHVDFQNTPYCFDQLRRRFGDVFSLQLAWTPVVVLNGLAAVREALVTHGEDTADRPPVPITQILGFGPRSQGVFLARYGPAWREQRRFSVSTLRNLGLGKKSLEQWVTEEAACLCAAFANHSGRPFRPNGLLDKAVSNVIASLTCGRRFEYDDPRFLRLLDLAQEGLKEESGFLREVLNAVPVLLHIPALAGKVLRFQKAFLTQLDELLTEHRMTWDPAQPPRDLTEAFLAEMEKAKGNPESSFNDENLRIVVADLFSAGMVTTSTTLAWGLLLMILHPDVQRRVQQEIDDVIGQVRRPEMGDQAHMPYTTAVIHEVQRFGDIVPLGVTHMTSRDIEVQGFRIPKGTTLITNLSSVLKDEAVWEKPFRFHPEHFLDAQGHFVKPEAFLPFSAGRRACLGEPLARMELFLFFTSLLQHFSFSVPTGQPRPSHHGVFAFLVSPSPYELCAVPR
rat brain nicotinic receptor (α7 NAChR), sequence (Q05941 23-502 limits assumed): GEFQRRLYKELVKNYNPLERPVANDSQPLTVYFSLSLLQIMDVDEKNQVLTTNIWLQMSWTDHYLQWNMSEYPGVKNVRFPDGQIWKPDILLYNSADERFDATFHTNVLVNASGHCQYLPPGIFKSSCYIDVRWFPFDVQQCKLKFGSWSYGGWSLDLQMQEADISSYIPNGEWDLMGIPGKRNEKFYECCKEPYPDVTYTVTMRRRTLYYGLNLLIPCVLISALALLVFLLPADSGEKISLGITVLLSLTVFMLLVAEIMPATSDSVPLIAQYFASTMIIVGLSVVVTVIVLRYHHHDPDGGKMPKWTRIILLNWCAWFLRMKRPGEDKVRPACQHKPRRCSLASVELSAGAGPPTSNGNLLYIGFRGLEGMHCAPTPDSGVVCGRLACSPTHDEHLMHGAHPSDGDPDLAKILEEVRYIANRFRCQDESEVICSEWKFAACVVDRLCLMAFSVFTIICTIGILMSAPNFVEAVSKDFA

SMILES	IC50 [2, 12] [µM]	IC50 [2, 13] [µM]	IC50 ([3]; read-out: 1A2 IC50, Protocol 1) [µM]	IC50 [7] [µM]	Ki [7] [µM]	HLM ([1]; human, microsomes, pH 7.4) [mL/min/kg]	IC50 ([3]; read-out: 1A2 IC50, Protocol 2) [µM]	IC50 [10] [µM]	% Remaining @ 2 h ([4]; human, 2 h, 1 μM, pH 7.4) [%]	half-life at 1 μM ([4]; human, pH 7.4) [h]	RLM ([9]; rat, microsomes, pH 7.4) [mL/min/kg]	other results
Cl.O=C(OCC12CCN(CC1)CC2)c1c[nH]c2cc(F)c(F)cc12 [Compound 51, Quinuclidin-4-ylmethyl 5,6-difluoro-1H-indole-3-carboxylate hydrochloride]	> 10	> 10	> 10	0.662	0.568							HLM [1, 11]: 1.004 mL/min/kg; % Remaining @ 2 h ([4]; Protocol No. 2, 5 μM, 37° C.): 79.3649%; IC50 [5, 14]: > 10 µM; IC50 ([6]; read-out: 2D6 IC50, Protocol 1): > 10 µM; IC50 ([8]; read-out: 2C9 IC50, Protocol 1): > 10 µM; RLM [9, 15]: 716.882 mL/min/kg
COc1ccc2[nH]cc(C(=O)OCC34CCN(CC3)CC4)c2c1OC [Compound 40, quinuclidin-4-ylmethyl 4,5-dimethoxy-1H-indole-3-carboxylate]	> 10	> 10	> 10	0.0696	0.06							HLM ([1]; human, microsomes): 7.67 mL/min/kg; IC50 ([10]; 45 min): > 10 µM; T1/2 ([4]; human): ∞; % Remaining @ 2 h ([4]; human, 2 h, 5 μM): 106.8%; RLM ([9]; rat, microsomes): 49.42 mL/min/kg
Cc1ccc2c(C(=O)OCC34CCN(CC3)CC4)c[nH]c2c1.Cl [Compound 45, Quinuclidin-4-ylmethyl 6-methyl-1H-indole-3-carboxylate hydrochloride]	> 10	> 10	> 10	0.0736	0.0631							HLM [1, 11]: 2.976 mL/min/kg; % Remaining @ 2 h ([4]; Protocol No. 2, 5 μM, 37° C.): 47.32%; IC50 [5, 14]: > 10 µM; IC50 ([6]; read-out: 2D6 IC50, Protocol 1): > 10 µM; IC50 ([8]; read-out: 2C9 IC50, Protocol 1): > 10 µM; RLM [9, 15]: 170.981 mL/min/kg
COc1ccc2[nH]cc(C(=O)OCC34CCN(CC3)CC4)c2c1Cl [Compound 39, quinuclidin-4-ylmethyl 4-chloro-5-methoxy-1H-indole-3-carboxylate]	> 10	> 10	> 10	0.0239	0.0206							HLM ([1]; human, microsomes): 9.18 mL/min/kg; IC50 ([10]; 45 min): > 10 µM; % Remaining @ 2 h ([4]; human, 2 h, 5 μM): 14.05%; RLM ([9]; rat, microsomes): 262.35 mL/min/kg
Cl.O=C(OCC12CCN(CC1)CC2)c1c[nH]c2cc(O)c(F)cc12 [Compound 59, Quinuclidin-4-ylmethyl 5-fluoro-6-hydroxy-1H-indole-3-carboxylate hydrochloride]	> 10	> 10	> 10	0.0701	0.0602							HLM [1, 11]: 0 mL/min/kg; % Remaining @ 2 h ([4]; Protocol No. 2, 5 μM, 37° C.): 53.78%; IC50 [5, 14]: 20.9 µM; IC50 ([6]; read-out: 2D6 IC50, Protocol 1): > 10 µM; IC50 ([8]; read-out: 2C9 IC50, Protocol 1): > 10 µM; RLM [9, 15]: 24.713 mL/min/kg
O=C(OCC12CCN(CC1)CC2)c1c[nH]c2cc(Cl)ccc12 [Compound 26, quinuclidin-4-ylmethyl 6-chloro-1H-indole-3-carboxylate]				0.451	0.398	<13.608	> 10	> 10	65	> 2	75.0501	
O=C(OCC12CCN(CC1)CC2)c1c[nH]c2cccc(Br)c12 [Compound 24, quinuclidin-4-ylmethyl 4-bromo-1H-indole-3-carboxylate]				0.0581	0.0504	<13.608	> 10	> 10	89	> 2	175.569	
O=C(OCC12CCN(CC1)CC2)c1c[nH]c2ccc(Br)cc12 [Compound 23, quinuclidin-4-ylmethyl 5-bromo-1H-indole-3-carboxylate]				0.424	0.374	<13.608	> 10	> 10	21	0.882	81.6815	
O=C(OCC12CCN(CC1)CC2)c1c[nH]c2cccc(Cl)c12 [Compound 35, quinuclidin-4-ylmethyl 4-chloro-1H-indole-3-carboxylate]				0.0266	0.023	<13.608	> 10	> 10	56	> 2	183.6	
Cc1cccc2[nH]cc(C(=O)OCC34CCN(CC3)CC4)c12 [Compound 21, quinuclidin-4-ylmethyl 4-methyl-1H-indole-3-carboxylate]				0.0588	0.0509	<13.608	> 10	> 10	83	> 2	379.107	
O=C(OCC12CCN(CC1)CC2)c1c[nH]c2cc(Br)ccc12 [Compound 22, quinuclidin-4-ylmethyl 6-bromo-1H-indole-3-carboxylate]				0.607	0.532	<13.608	> 10	> 10	58	> 2	49.5027	
Cl.O=C(OCC12CCN(CC1)CC2)c1c[nH]c2cc(OC(F)F)ccc12 [Compound 31, Quinuclidin-4-ylmethyl 6-(difluoromethoxy)-1H-indole-3-carboxylate hydrochloride]				0.788	0.689		> 10					HLM [1, 16]: <13.608 mL/min/kg; IC50 [2, 17]: > 10 µM; IC50 [5, 18]: > 10 µM; IC50 ([6]; read-out: 2D6 IC50, Protocol 2): > 10 µM; IC50 ([8]; read-out: 2C9 IC50, Protocol 2): > 10 µM; RLM [9, 19]: 25.92 mL/min/kg
Cl.O=C(OCC12CCN(CC1)CC2)c1c[nH]c2cc(OC(F)(F)F)ccc12 [Compound 29, Quinuclidin-4-ylmethyl 6-(trifluoromethoxy)-1H-indole-3-carboxylate hydrochloride]				3.71	3.24		> 10					HLM [1, 16]: <13.608 mL/min/kg; IC50 [2, 17]: > 10 µM; IC50 [5, 18]: > 10 µM; IC50 ([6]; read-out: 2D6 IC50, Protocol 2): > 10 µM; IC50 ([8]; read-out: 2C9 IC50, Protocol 2): > 10 µM; RLM [9, 19]: 25.92 mL/min/kg
O=C(OCC12CCN(CC1)CC2)c1c[nH]c2cc(O)ccc12 [Compound 14, quinuclidin-4-ylmethyl 6-hydroxy-1H-indole-3-carboxylate]				0.0619	0.0537	<13.608	> 10		26	1.09	25.92	IC50 [5, 18]: > 10 µM; IC50 ([6]; read-out: 2D6 IC50, Protocol 2): > 10 µM; IC50 ([8]; read-out: 2C9 IC50, Protocol 2): > 10 µM
